Experimental data published in a melting point compilation (Tetko et al.; mined from patent text by program, amines drawn as free bases though some values may be those of a salt).

First: NC(=O)NN=Cc1ccc(Cc2ccccc2)cc1
Second: CN(Cc1ccccc1)C(=O)COc1ccc([N+](=O)[O-])cc1
The melting point of the first is higher: 118 to 120 °C for the first, 95 to 96 °C for the second.

First: CCCCOC(=O)c1c(-c2cnccn2)ssc1=S
Second: CCCc1nc2c(N)ncc(Br)c2n1CCOCCNS(C)(=O)=O
The melting point of the first is lower: 127 °C for the first, 129 to 131 °C for the second.

Compared with `CC(=O)c1ccc(Oc2ccc(S(C)(=O)=O)cc2)cc1`, `CC1(C)C(=O)C(c2ccccc2)=C1c1ccc(S(C)(=O)=O)cc1` is higher in melting point: 131 to 132 °C for the first, 145 to 146 °C for the second.

First: CSc1cc2[nH]ccc2cc1F
Second: Cc1cc2oc(S(N)(=O)=O)cc2cn1
The melting point of the first is lower: 51 °C for the first, 233 to 234 °C for the second.

First: Fc1ccc(Nc2nc(-c3ccc(F)cc3)cs2)cc1
Second: CCn1nnc(C(C=CC=O)=C(c2ccc(F)cc2)c2ccc(F)cc2)n1
The melting point of the first is higher: 127 °C for the first, 117 to 120 °C for the second.

First: O=C1C[C@@H](O)C[C@H](/C=C/c2ccccc2)O1 (relative stereo)
Second: O=C(C=C1CCCCN1)c1ccccc1
The melting point of the first is higher: 94 to 95 °C for the first, 59 to 60 °C for the second.

First: CC(C)(C)c1cc(NC(=O)Nc2ccc(Oc3ccccc3)cc2)on1
Second: COc1ccc(C(=O)c2ccc(SCc3ccccc3)s2)cc1
The melting point of the first is higher: 182 to 184 °C for the first, 103 to 105 °C for the second.

Compared with `COc1ccc(CC2CCN(C(=O)C(=O)Nc3ccc4[nH]c(=O)oc4c3)CC2)cc1`, `COc1ccc(CC2Cc3cc(C)cnc3C(OC(C)=O)C2)cc1` (single isomer, unassigned; (+)) is lower in melting point: 193 to 197 °C for the first, 94 to 98 °C for the second.

First: CC(=O)Nc1cccc(NC(=O)Cc2ccc(-n3c(-c4cccnc4N)nc4ccc(C)nc43)cc2)c1
Second: O=C(Cc1cccc2ccccc12)Nc1cc([C@H]2C[C@@H](Oc3nc4ccccc4o3)C2)[nH]n1
The melting point of the first is higher: 207 to 209 °C for the first, 142 °C for the second.

Compared with `CC(C)c1nc2c(cc1CO)COC(=O)N2c1ccc(F)cc1`, `C=CCC(O)c1c(-c2ccc(F)cc2)nc(N(C)S(C)(=O)=O)nc1C(C)C` (centres undefined) is lower in melting point: 154 °C for the first, 126 °C for the second.

First: COc1cc(OC)c(C)c(C(=O)NCC23CC4CC(CC(Cl)(C4)C2)C3)c1
Second: COC(=O)C1CCc2cc(C)c(C)cc2C1=O (centres undefined)
The melting point of the first is higher: 173 to 175 °C for the first, 80 to 81 °C for the second.

First: N#Cc1c(F)c(F)c(CO)c(F)c1F
Second: COc1ccc(N(CC(O)CO)S(=O)(=O)c2c(F)c(F)c(F)c(F)c2F)cc1 (centres undefined)
The melting point of the first is lower: 50 °C for the first, 130 to 131 °C for the second.

First: CC(=O)Oc1c(C)c2c(c3ccccc13)OCC2c1ccc(C(C)C)cc1 (centres undefined)
Second: Cc1c(NC(=O)CC(C)(C)C)c(C)c(C(C)(C)O)c2c1C(c1ccc(C(C)C)cc1)CO2 (centres undefined)
The melting point of the first is lower: 109 to 110 °C for the first, 133 to 134 °C for the second.

First: COc1cc2ccccc2cc1C(=O)NNC(=O)c1cc2ccccc2cc1OC
Second: O=C1C=CC(=C(c2ccc3ccccc3c2)c2ccc3ccccc3c2)O1
The melting point of the first is higher: 260 to 263 °C for the first, 138 to 140 °C for the second.

First: Nc1ccc(Oc2ccc(C(c3ccc(Oc4ccc(N)c(O)c4)cc3)(C(F)(F)F)C(F)(F)F)cc2)cc1O
Second: O=C(O)c1ccc(Oc2c(-c3ccc(O)cc3)c(C(F)(F)F)cc3ccccc23)cc1
The melting point of the first is lower: 178 to 181 °C for the first, 244 to 245 °C for the second.

First: CC1=C(C(=O)OCC=Cc2ccccc2)C(c2ccccc2C(F)(F)F)c2c(ccnc2OC(C)C)N1 (centres undefined)
Second: COC(=O)C1=C(C)NC(C(=N)N)=C(C(=O)OC(C)C)C1c1ccccc1[N+](=O)[O-] (centres undefined)
The melting point of the first is lower: 164 to 166 °C for the first, 203 °C for the second.

Compared with `O=[N+]([O-])c1ccccc1-c1ccc2c(c1)S(=O)(=O)NC(C1CCCCC1)N2` (centres undefined), `COc1ccc(-c2[nH]nc3c2C(=O)c2c(NC(=O)CN4CCCCC4)cccc2-3)cc1` is higher in melting point: 204 to 207 °C for the first, 291 °C for the second.

First: COC1CCC2C3CCC4CC(=O)C(C)(C)CC4(C)C3CCC12C (centres undefined)
Second: CC1=C(O)CCC(C)(C)C1=O
The melting point of the first is higher: 116 to 120 °C for the first, 112 to 114 °C for the second.

First: CCCC(=O)C(=CNc1ccc(CO)cc1)C(=O)OCC
Second: CCc1ccc(C(=O)O)c(N)c1
The melting point of the first is lower: 44 to 46 °C for the first, 117 to 120 °C for the second.

Going from `COC(=O)C1(NC(=O)Cc2cc(-c3ccc(Cl)cc3)ccc2Cl)CCCCC1` to `COc1ccc(C(=O)Nc2cc(NC(=O)c3cccc(N4CCOCC4)c3)ccc2Cl)cc1OC`, the melting point rises from 124 °C to 148 °C.

First: O=C1CCc2c(Cl)sc(-c3ccccc3F)c21
Second: CC(O)(c1ccccc1)c1cc(Cl)ccc1N (centres undefined)
The melting point of the first is higher: 133 to 135 °C for the first, 93 to 94 °C for the second.

Compared with `CCCS(=O)(=O)Nc1cccc(C)c1C(N)c1cccn2c(C)c(C)nc12` (centres undefined), `CC(=O)CCc1cccc(C)c1NC(=O)CC1c2ccccc2Oc2ccccc21` is lower in melting point: 245 to 248 °C for the first, 179 to 180 °C for the second.

First: Cc1c(CC(=O)O)oc2ccc(Cl)cc12
Second: CSc1c(C)c(-c2ccc(Cl)cc2Cl)nn1C
The melting point of the first is higher: 149 to 150 °C for the first, 65 to 66 °C for the second.

Compared with `CS(=O)(=O)N1CCC2(CC1)OCCO2`, `Nc1ccc(-c2cc(=O)cc(N3CCOCC3)o2)cc1` is higher in melting point: 107 to 109 °C for the first, 258 to 260 °C for the second.

Compared with `O=C(O)c1ccc(Cn2ccc(OCc3ccccc3)c(Br)c2=O)cc1`, `COc1ccc(C(=O)Nc2ccccc2)cc1Nc1cc(Cl)cc(Cl)c1` is lower in melting point: 251 to 256 °C for the first, 207 to 208 °C for the second.

First: Cc1ccsc1-c1ccc(C2(C)NC(=O)NC2=O)cc1 (centres undefined)
Second: CC1CC(=O)NN=C1c1ccc(Nc2nc(=O)cc[nH]2)cc1 (centres undefined)
The melting point of the first is lower: 201 to 202 °C for the first, 268 to 270 °C for the second.

First: COc1ccc(C(=O)C(=O)c2cccc(-c3ccc(S(C)(=O)=O)cc3)c2-c2ccccc2)cc1Cl
Second: O=C(NC1N=C(c2ccccc2)c2ccccc2NC1=O)c1ccc2ccccc2c1 (racemic)
The melting point of the first is lower: 163 to 166 °C for the first, 293 to 294 °C for the second.

Compared with `CC(C)[C@H](C[C@H](O)[C@H](C)NC(=O)OC(C)(C)C)C(=O)NCCN`, `CC(C)(C)OC(=O)N1CCn2c(C#N)c(-c3cccc(F)c3)c(C(N)=O)c2C1` is higher in melting point: 55 to 62 °C for the first, 208 to 210 °C for the second.

Compared with `COC1(c2ccccc2)C=CC(=O)C=C1`, `CNC(=O)c1ccccc1I` is higher in melting point: 89 °C for the first, 153 to 154 °C for the second.

Compared with `O=C1C(=O)c2ccc(Br)cc2C2=C1SCC1(CCN(CC(O)COc3ccc(Cl)cc3)CC1)O2` (centres undefined), `C=C1N(CCCC)C(=O)OC12CCN(CCC=C(c1ccc(F)cc1)c1ccc(F)cc1)CC2` is lower in melting point: 150 to 152 °C for the first, 92 to 93 °C for the second.

First: CC(=O)Nc1ccccc1S(N)(=O)=O
Second: CC(=O)Nc1ccc([N+](=O)[O-])cc1OCC1CO1 (centres undefined)
The melting point of the first is lower: 154 to 156 °C for the first, 164 °C for the second.

First: O=C(Nc1ccc(Cl)cc1)c1ccc2cccnc2c1O
Second: Oc1ccc2cc(-c3csc(Cc4c(Cl)cccc4Cl)n3)ccc2c1
The melting point of the first is higher: 207 to 209 °C for the first, 191 to 193 °C for the second.

Compared with `Cc1ccc2c(c1C)OC(C)(C)C2=O`, `CC1=CC(OC(=O)c2ccc(N)cc2N)C(O)C(C)(C)CC1=O` (centres undefined) is higher in melting point: 79 to 81 °C for the first, 154 to 156 °C for the second.

First: CCCCCCCCCCCCCCCCCC(CCC(=O)O)[N+](=O)[O-] (centres undefined)
Second: CCCCCCCCCc1cnc(-c2ccc(OCc3ccc(CCCCCC)cc3)cc2)nc1
The melting point of the first is higher: 55 to 56 °C for the first, 51 °C for the second.

Compared with `N#Cc1cc(-c2c3ccccc3cc3sc4ccccc4c23)cc(C#N)c1OCC(=O)O`, `COc1ccc2[nH]c(C(=O)N3CC(CCl)c4c3cc(N)c3ccccc43)cc2c1` (centres undefined) is higher in melting point: 134 to 136 °C for the first, 250 to 255 °C for the second.

First: C=CCOc1nc2c(c3ccccc13)c1cc(Cl)ccc1n2C
Second: C=CCC12CC(c3ccccc31)c1ccccc12
The melting point of the first is higher: 147 to 148 °C for the first, 42 to 43 °C for the second.

Compared with `C1=CN(Cc2ccccc2)CCC1c1cc2ccccc2o1` (centres undefined), `O=C(O)c1cccc(N2CCc3ccccc32)c1` is higher in melting point: 139 to 140 °C for the first, 168 to 170 °C for the second.

First: CCNC(=O)Cn1cccc(O)c1=O
Second: CCc1nc(C(=O)c2ccc(Cl)cc2Cl)c(C(C)=O)n1C(CC)CC
The melting point of the first is higher: 214 to 215 °C for the first, 63 to 64 °C for the second.

First: Cc1nccn1-c1cccc(Nc2ccc(-c3ccoc3)cc2N)c1
Second: c1ccc(-c2cc3ncnc(Nc4ccc5c(ccn5CCN5CCOCC5)c4)c3s2)cc1
The melting point of the first is lower: 98 to 99 °C for the first, 225 to 226 °C for the second.

First: Cc1ccc(C(=O)N[C@H](Cc2ccc(C(F)(F)F)cc2)[C@@H](O)c2ccc(F)cc2)c2ccccc12 (racemic)
Second: O=S(=O)(c1ccccc1)N1CCCC1c1ccc(C(F)(F)F)cc1 (racemic)
The melting point of the first is higher: 198 to 199 °C for the first, 95 °C for the second.

First: CCOC(=O)OCCn1nc(-c2cc(C(C)(C)C)c(O)c(C(C)(C)C)c2)c2ccc(C)nc21
Second: CCOC(=O)c1sc(Oc2ccc(Cl)cc2Cl)nc1C
The melting point of the first is higher: 145 to 146 °C for the first, 71 to 73 °C for the second.

Compared with `Cc1cccc(Cn2cc(-c3cn(C4CC(O)C(CO)O4)c(=O)[nH]c3=O)nn2)c1` (centres undefined), `COc1ccnc(CCc2nc3cc(-c4ccc(S(=O)(=O)N5CCOCC5)cc4)cnc3[nH]2)c1` is higher in melting point: 132 to 133 °C for the first, 210 to 212 °C for the second.

First: Cc1cc(OC2CCS(=O)(=O)CC2)cc(C)c1-c1cccc(COc2ccc(C3CC3C(=O)O)cc2)c1 (centres undefined)
Second: CCCCCCCCOc1ccc(-c2nnc(-c3cc(Cl)ccc3Cl)o2)cc1
The melting point of the first is higher: 161 to 162 °C for the first, 86 °C for the second.

First: Oc1ccc(-c2nc3cc(O)cc(Br)c3o2)cc1
Second: COC(=O)Cc1ccc(-c2ccc(F)cc2F)c(F)c1
The melting point of the first is higher: 139 to 141 °C for the first, 74 to 77 °C for the second.

First: Cn1cc(C2=C(c3cn(C)c4cc([N+](=O)[O-])ccc34)C(=O)N(COP(=O)(OCc3ccccc3)OCc3ccccc3)C2=O)c2ccccc21
Second: Nc1ccc(C(=O)NCCNC(=O)c2ccc(N)cc2)cc1
The melting point of the first is lower: 105 to 109 °C for the first, 294 to 295 °C for the second.

First: CCCCCc1ccc2c(c1)Cc1cc(CCCCC)ccc1-2
Second: CC(C)c1ccc(Cn2[nH]c(N)cc2=O)cc1
The melting point of the first is lower: 98.9 to 99.6 °C for the first, 105 °C for the second.

First: CC(C)Nc1cccnc1N1CCN(C(=O)c2ccc(C(=O)N3CCSCC3)cc2)CC1
Second: COc1cc2c(cc1Nc1ncc(F)c(Nc3ccc(N4CCOCC4)cc3OC)n1)CCN(CC(=O)OC(C)C)CC2
The melting point of the first is higher: 163 to 164 °C for the first, 94 to 110 °C for the second.

First: O=C(Nc1cccc(NC(=O)C(F)(F)C(F)(F)F)c1)Nc1ccc(Cl)c(Cl)c1
Second: CC(C#N)(Cc1c[nH]cn1)c1ccccc1 (centres undefined)
The melting point of the first is higher: 195 to 197 °C for the first, 187 to 189 °C for the second.

First: CCN1C=C(N=[N+]=[N-])N=C(C2CC2)c2ccccc21
Second: CCc1nc2c(N)nc3cc(CCC(N)=O)ccc3c2n1CC1CCOCC1
The melting point of the first is lower: 158 to 160 °C for the first, 197 to 199 °C for the second.

`Cc1cc(-c2csc(NC(=N)N)n2)c[nH]1` showed a melting point of 235 to 237 °C.
